US11420966B2 (ACLARIS THERAPEUTICS, INC., priority 2019, dated 2022)

How the values were obtained:
JAK1 = JAK1 (Homo sapiens (Human), UniProt P23458); experiment: JAK1 enzyme activity assay (Thermo Fisher SelectScreen, Z-lyte); assay type: biochemical; settings: read-out: JAK1 Inhibition IC50
Experimental: (§1) JAK1, JAK2, JAK3, and Tyk-2 Enzyme Activity Assays
(§2) The inhibitory potency of candidate compounds of JAK1, JAK2, and Tyk-2 was done at Thermo Fisher Scientific in their Selectscreen using a Z-lyte assay. Following are the assay details for each enzyme.
JAK: The 2×JAK-enzyme/Tyr 06 mixture is prepared in 50 mM HEPES pH 6.5, 0.01% BRIJ-35, 10 mM MgCl2, 1 mM EGTA, 0.02% NaN3. The final 10 μL of the Kinase Reaction consists of 21.2-91.5 ng JAK and 2 M Tyr 06 in 50 mM HEPES pH 7.0, 0.01% BRIJ-35, 10 mM MgCl2, 1 mM EGTA, 0.01% NaN3. After the one hour Kinase Reaction incubation, 5 μL of a 1:128 dilution of Development Reagent is added.
(§3) Data reduction for JAK1, JAK2 and TYK2 is done the same, independent of the enzyme run. In summary, background signal is defined in the absence of enzyme and uninhibited signal is defined in the presence of vehicle (2% DMSO) alone. Compounds were evaluated in an 11 point dose-response ranging from […] to 0.34 nM. IC50 values of compounds are determined using a 4 parameter logistical fit of emission ratio as a function of the concentration of compound.

JAK2 = JAK2 (Homo sapiens (Human), UniProt O60674); experiment: JAK2 enzyme activity assay (Thermo Fisher SelectScreen, Z-lyte); assay type: biochemical; settings: read-out: JAK2 Inhibition IC50
Experimental: as §1, §2
JAK2: The 2×JAK2/Tyr 06 mixture is prepared in 50 mM HEPES pH 7.5, 0.01% BRIJ-35, 10 mM MgCl2, 1 mM EGTA. The final 10 μL Kinase Reaction consists of 0.12-0.5 ng JAK2 and 2 M Tyr 06 in 50 mM HEPES pH 7.5, 0.01% BRIJ-35, 10 mM MgCl2, 1 mM EGTA. After the one hour Kinase Reaction incubation, 5 μL of a 1:128 dilution of Development Reagent A is added.
as §3

JAK3 (a.a. 781-1124) = JAK3 (a.a. 781-1124) (Homo sapiens (Human), UniProt P52333); experiment: JAK3 enzyme activity assay (SRCtide phosphorylation, Caliper); assay type: biochemical; settings: 1 uM ATP; read-out: JAK3 Inhibition IC50
Experimental: as §1
Kinase reactions were run in a 384-well Greiner plate with 2% final DMSO concentration under the buffer conditions of 20 mM HEPES, pH 7.5, 10 mM MgCl2, 0.01% BSA, and 0.0005% Tween-20. The kinase reaction components were 2.5 nM JAK3, 1 μM SRCtide peptide and 1 uM ATP. Examples were tested in dose-response starting at 2 M (11 concentrations, 3-fold serial dilution, duplicate reactions). The reactions were incubated at room temperature for 40 minutes, then stopped by adding a 1:1 volume of 30 mM EDTA in 20 mM HEPES, pH 7.5 (15 mM EDTA final). After the reaction was stopped, the phosphorylated and unphosphorylated peptides were separated and quantified using a Caliper LC3000/EZ-Reader system and HTS Well Analyzer Software (Caliper, A PerkinElmer Company, Hopkinton, Mass.). GraFit (Erithacus Software Ltd., Horley, U.K.) was used to calculate inhibitor potency by fitting dose-response data to the 4-parameter logistical IC50 equation.

Tyk-2 = Tyk-2 (Homo sapiens (Human), UniProt P29597); experiment: Tyk-2 enzyme activity assay (Thermo Fisher SelectScreen, Z-lyte); assay type: biochemical; settings: read-out: Tyk-2 Inhibition IC50
Experimental: as §1, §2
TYK2: The 2×TYK2/Tyr 03 mixture is prepared in 50 mM HEPES pH 6.5, 0.01% BRIJ-35, 10 mM MgCl2, 1 mM EGTA, 0.02% NaN3. The final 10 μL Kinase Reaction consists of 3.75-15 ng TYK2 and 2 M Tyr 03 in 50 mM HEPES pH 7.0, 0.01% BRIJ-35, 10 mM MgCl2, 1 mM EGTA, 0.01% NaN3. After the one hour KinaseReaction incubation, 5 μL of a 1:4096 dilution of Development Reagent A is added.
as §3

[1] = test system: IL-2 stimulated STAT5 phosphorylation on Tyr694 (JAK1/3); experiment: JAK1/3 cellular target modulation: IL-2 stimulated phospho-STAT5 in PBMC; assay type: cell-based; settings: human PBMC, IL-2 25 ng/ml; read-out: IL2-STAT5 IC50
Description: (§4) JAK Cellular Target Modulation Assays
(§5) Target modulation was based upon the ability of a compound to inhibit JAK isoform specific phosphorylation of selected substrates. IL-2 stimulated STAT5 phosphorylation on Tyr694 was used to assess JAK1/3 compound selectivity. GM-CSF stimulated STAT5 phosphorylation on Tyr694 was used to assess JAK2 compound selectivity. IFNγ stimulated STAT1 phosphorylation on Tyr701 was used to assess JAK1/2 compound selectivity. IL-12 stimulated STAT4 phosphorylation on Tyr693 was used to assess JAK2/TYK2 compound selectivity. For all four assays, human PBMC from frozen stocks were thawed, pelleted, resuspended in complete media (90% RPMI, 10% heat inactivated FBS, 10 mM HEPES, 47 μM 2-ME, pen/strep) and placed in wells of a 96 well V-bottom plate at 200,000 per well in 120 μl complete media. Compounds were added as 15 μl per well of 10× working stock solutions in complete media with 1% DMSO (or medium with 1% DMSO for controls) and placed on a plate shaker in a 37° C. incubator with 5% CO2 for 1 hour with gentle shaking (setting of 3). Stimulation used the addition of soluble cytokines. For the JAK1/3 phospho-STAT5 assay, 15 μl of 10× working stock recombinant human IL-2 was added to a final concentration of 25 ng/ml. For the JAK2 phospho-STAT5 assay, 15 μl of 10× working stock recombinant human GM-CSF was added to a final concentration of 5 ng/ml. For the JAK1/2 phospho-STAT1 assay, 15 μl of 10× working stock of recombinant human IFNγ was added to a final concentration of 10 ng/ml. For the JAK2/TYK2 phospho-STAT4 assay, 15 μl of 10× working stock of recombinant human IL-12 was added to a final concentration of 1.7 ng/ml. Plates were then placed back on the plate shaker in the incubator for an additional 5, 5, 10, and 25 minutes respectively upon which the plates were removed from the incubator, sealed with a plate sealer and the cells pelleted at 400×g for 5 minutes. After pelleting, the media was removed by aspiration and the cells were lysed in assay specific cell lysis buffer. The levels of phospho-STATS were determined using a Phospho (Tyr694) STAT5a,b Whole Cell Lysate kit from Meso Scale Discovery. Levels of phospho-STAT1 were determined using a CST-PathScan Phospho-STAT1 (Tyr701) Sandwich ELISA kit. Levels of phospho-STAT4 were determined using a Phospho-STAT4 (Tyr693) Whole Cell Lysate kit from Meso Scale Discovery.

[2] = test system: IFNγ stimulated STAT1 phosphorylation on Tyr701 (JAK1/2); experiment: JAK1/2 cellular target modulation: IFNγ stimulated phospho-STAT1 in PBMC; assay type: cell-based; settings: human PBMC, IFNγ 10 ng/ml; read-out: Infγ-STAT1 IC50
Description: as §4, §5

[3] = test system: IL-12 stimulated STAT4 phosphorylation on Tyr693 (JAK2/TYK2); experiment: JAK2/TYK2 cellular target modulation: IL-12 stimulated phospho-STAT4 in PBMC; assay type: cell-based; settings: human PBMC, IL-12 1.7 ng/ml; read-out: IL12-STAT4 IC50
Description: as §4, §5

Sequence of Tyk-2 (P29597 whole entry): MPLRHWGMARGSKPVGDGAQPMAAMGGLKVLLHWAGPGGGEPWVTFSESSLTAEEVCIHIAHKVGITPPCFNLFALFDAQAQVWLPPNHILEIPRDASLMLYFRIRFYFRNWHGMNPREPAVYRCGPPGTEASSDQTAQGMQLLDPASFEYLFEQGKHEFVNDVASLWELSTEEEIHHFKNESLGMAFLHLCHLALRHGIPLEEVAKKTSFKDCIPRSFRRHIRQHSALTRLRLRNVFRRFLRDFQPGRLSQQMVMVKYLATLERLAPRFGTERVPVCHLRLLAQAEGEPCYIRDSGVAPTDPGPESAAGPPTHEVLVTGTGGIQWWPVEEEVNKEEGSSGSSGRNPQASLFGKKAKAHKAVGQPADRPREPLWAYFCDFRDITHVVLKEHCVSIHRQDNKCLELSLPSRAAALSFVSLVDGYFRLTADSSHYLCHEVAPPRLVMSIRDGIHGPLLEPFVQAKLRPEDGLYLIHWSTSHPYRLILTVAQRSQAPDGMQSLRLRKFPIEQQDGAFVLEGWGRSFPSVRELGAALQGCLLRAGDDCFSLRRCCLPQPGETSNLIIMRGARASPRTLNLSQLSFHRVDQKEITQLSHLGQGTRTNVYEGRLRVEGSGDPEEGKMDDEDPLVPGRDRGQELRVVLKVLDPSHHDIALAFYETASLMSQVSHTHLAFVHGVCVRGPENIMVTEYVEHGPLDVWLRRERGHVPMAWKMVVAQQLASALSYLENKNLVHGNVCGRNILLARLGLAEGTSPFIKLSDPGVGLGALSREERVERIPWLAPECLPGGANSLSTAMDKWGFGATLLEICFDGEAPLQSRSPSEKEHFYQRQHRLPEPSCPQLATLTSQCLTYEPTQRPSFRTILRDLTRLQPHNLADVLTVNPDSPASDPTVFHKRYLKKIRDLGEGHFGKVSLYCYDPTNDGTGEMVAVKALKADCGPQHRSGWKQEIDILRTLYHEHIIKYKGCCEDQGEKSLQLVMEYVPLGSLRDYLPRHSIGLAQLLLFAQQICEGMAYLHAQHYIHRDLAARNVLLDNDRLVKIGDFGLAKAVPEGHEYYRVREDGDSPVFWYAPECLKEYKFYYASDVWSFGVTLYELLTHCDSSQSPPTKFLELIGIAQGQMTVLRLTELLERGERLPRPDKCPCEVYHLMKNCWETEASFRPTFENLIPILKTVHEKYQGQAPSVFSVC
Sequence of JAK2 (O60674 whole entry): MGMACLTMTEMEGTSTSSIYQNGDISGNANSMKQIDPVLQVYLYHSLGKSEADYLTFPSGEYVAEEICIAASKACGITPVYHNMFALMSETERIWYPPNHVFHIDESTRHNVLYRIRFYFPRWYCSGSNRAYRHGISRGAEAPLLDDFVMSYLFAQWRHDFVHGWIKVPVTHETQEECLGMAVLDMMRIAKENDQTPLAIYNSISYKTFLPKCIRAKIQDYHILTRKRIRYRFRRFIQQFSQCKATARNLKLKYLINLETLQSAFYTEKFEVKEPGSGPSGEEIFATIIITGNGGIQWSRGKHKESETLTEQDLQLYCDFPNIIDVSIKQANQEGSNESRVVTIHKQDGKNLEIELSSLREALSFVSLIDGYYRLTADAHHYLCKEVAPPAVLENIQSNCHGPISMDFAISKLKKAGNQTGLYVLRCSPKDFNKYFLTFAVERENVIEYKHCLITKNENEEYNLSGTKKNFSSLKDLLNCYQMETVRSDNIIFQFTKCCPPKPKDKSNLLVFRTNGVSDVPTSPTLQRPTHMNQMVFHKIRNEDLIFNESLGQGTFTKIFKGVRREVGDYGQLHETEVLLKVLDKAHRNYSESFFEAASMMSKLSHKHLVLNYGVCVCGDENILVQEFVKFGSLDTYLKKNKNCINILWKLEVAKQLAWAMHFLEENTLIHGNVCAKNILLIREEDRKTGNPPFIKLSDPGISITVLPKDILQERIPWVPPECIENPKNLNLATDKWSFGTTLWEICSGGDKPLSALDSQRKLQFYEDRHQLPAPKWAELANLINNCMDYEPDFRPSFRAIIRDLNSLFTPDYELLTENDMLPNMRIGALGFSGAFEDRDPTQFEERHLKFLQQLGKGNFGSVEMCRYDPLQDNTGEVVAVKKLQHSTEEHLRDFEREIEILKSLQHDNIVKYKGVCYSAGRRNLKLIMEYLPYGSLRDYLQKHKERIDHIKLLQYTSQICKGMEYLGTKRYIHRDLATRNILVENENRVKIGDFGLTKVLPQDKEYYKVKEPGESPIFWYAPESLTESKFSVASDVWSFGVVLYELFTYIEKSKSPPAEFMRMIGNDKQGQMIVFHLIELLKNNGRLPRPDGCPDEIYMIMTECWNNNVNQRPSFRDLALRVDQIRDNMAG
Sequence of JAK3 (a.a. 781-1124) (P52333 781-1124): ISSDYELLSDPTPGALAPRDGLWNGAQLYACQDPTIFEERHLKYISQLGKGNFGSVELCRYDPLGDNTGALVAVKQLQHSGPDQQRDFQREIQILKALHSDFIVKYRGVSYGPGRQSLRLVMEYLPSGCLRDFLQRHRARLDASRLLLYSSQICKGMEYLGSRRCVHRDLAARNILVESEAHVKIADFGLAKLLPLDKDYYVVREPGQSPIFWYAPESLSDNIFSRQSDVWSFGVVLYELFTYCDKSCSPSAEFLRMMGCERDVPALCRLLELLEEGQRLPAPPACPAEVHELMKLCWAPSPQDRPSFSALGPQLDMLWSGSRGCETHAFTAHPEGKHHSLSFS
Sequence of JAK1 (P23458 whole entry): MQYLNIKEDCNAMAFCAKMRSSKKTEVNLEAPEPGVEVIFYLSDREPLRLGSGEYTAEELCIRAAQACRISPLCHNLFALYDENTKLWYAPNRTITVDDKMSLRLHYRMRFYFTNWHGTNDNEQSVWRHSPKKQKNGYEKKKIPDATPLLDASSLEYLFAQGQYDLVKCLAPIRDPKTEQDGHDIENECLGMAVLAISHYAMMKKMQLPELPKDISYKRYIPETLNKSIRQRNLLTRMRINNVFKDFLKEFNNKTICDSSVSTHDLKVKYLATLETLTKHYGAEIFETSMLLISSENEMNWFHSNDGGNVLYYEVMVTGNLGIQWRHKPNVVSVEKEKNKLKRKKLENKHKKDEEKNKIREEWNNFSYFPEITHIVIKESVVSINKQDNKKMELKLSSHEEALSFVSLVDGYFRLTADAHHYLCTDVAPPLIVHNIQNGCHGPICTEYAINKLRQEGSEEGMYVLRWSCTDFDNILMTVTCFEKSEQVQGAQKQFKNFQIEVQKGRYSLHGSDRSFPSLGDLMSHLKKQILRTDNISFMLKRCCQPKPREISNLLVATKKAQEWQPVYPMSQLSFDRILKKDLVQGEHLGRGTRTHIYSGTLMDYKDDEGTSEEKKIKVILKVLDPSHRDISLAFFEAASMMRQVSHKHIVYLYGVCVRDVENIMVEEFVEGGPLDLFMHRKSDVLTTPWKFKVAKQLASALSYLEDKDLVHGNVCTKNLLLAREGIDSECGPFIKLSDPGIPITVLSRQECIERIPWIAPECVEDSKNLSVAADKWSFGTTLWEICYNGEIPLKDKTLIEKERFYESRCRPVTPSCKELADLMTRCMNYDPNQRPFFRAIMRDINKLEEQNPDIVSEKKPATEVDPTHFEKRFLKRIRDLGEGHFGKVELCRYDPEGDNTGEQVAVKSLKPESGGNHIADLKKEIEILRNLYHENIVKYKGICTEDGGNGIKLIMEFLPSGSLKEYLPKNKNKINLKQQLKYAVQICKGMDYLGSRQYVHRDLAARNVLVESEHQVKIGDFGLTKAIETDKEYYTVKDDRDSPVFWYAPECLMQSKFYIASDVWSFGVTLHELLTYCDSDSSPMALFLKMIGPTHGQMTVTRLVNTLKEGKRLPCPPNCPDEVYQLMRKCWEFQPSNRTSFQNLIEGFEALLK

Row | SMILES | IC50 (JAK1) | IC50 (JAK2) | IC50 (JAK3 (a.a. 781-1124)) | IC50 (Tyk-2) | IC50 [1] | IC50 [2] | IC50 [3]
1 | N#CCCN1CCC[C@@H](Nc2c(-c3ncco3)cnc3[nH]ccc23)C1 [Example 27, (R)-3-(3-((5-(oxazol-2-yl)-1H-pyrrolo[2,3-b]pyridin-4-yl)amino)piperidin-1-yl)propanenitrile] | 10 to 100 nM | 10 to 100 nM | ≤ 10 nM | 100 to 1000 nM | 100 to 1000 nM | > 1000 nM | > 1000 nM
2 | CCOC(=O)c1cnc(-c2cnc3[nH]ccc3c2N[C@@H]2CCCN(C(=O)CC#N)C2)s1 [Example 42, ethyl (R)-2-(4-((1-(2-cyanoacetyl)piperidin-3-yl)amino)-1H-pyrrolo[2,3-b]pyridin-5-yl)thiazole-5-carboxylate] | ≤ 10 nM | ≤ 10 nM | ≤ 10 nM | ≤ 10 nM | ≤ 100 nM | 100 to 1000 nM | 100 to 1000 nM
3 | C[C@H]1C[C@@H](Nc2c(-c3ncco3)cnc3[nH]ccc23)CN(C(=O)CC#N)C1 (single isomer, unassigned) [Example 10] | ≤ 10 nM | ≤ 10 nM | ≤ 10 nM | ≤ 10 nM | ≤ 100 nM | ≤ 100 nM | ≤ 100 nM
4 | N#CCC(=O)N1CCC[C@@H](Nc2c(-c3nnco3)cnc3[nH]ccc23)C1 [Example 7, (R)-3-(3-((5-(1,3,4-oxadiazol-2-yl)-1H-pyrrolo[2,3-b]pyridin-4-yl)amino)piperidin-1-yl)-3-oxopropanenitrile] | 10 to 100 nM | 10 to 100 nM | 10 to 100 nM | 10 to 100 nM | 100 to 1000 nM | 100 to 1000 nM | > 1000 nM
5 | CS(=O)(=O)c1cnc(-c2cnc3[nH]ccc3c2N[C@@H]2CCCN(C(=O)CC#N)C2)o1 [Example 48, (R)-3-(3-((5-(5-(methylsulfonyl)oxazol-2-yl)-1H-pyrrolo[2,3-b]pyridin-4-yl)amino)piperidin-1-yl)-3-oxopropanenitrile] | ≤ 10 nM | 10 to 100 nM | 10 to 100 nM | 10 to 100 nM | ≤ 100 nM | 100 to 1000 nM | > 1000 nM
6 | N#CCC(=O)N1CCC[C@@H](Nc2c(-c3ccn(CCO)n3)cnc3[nH]ccc23)C1 [Example 62, (R)-3-(3-((5-(1-(2-hydroxyethyl)-1H-pyrazol-3-yl)-1H-pyrrolo[2,3-b]pyridin-4-yl)amino)piperidin-1-yl)-3-oxopropanenitrile] | ≤ 10 nM | ≤ 10 nM | ≤ 10 nM | 10 to 100 nM | ≤ 100 nM | 100 to 1000 nM | > 1000 nM
7 | Cc1noc(-c2cnc3[nH]ccc3c2N[C@@H]2CCCN(C(=O)CC#N)C2)n1 [Example 6, (R)-3-(3-((5-(3-methyl-1,2,4-oxadiazol-5-yl)-1H-pyrrolo[2,3-b]pyridin-4-yl)amino)piperidin-1-yl)-3-oxopropanenitrile] | ≤ 10 nM | 10 to 100 nM | ≤ 10 nM | 10 to 100 nM | ≤ 100 nM | 100 to 1000 nM | > 1000 nM
8 | CNC(=O)c1coc(-c2cnc3[nH]ccc3c2N[C@@H]2CC[C@H](C)N(C(=O)CC#N)C2)n1 [Example 30, 2-(4-(((3R,6S)-1-(2-cyanoacetyl)-6-methylpiperidin-3-yl)amino)-1H-pyrrolo[2,3-b]pyridin-5-yl)-N-methyloxazole-4-carboxamide] | ≤ 10 nM | ≤ 10 nM | 100 to 1000 nM | ≤ 10 nM | 100 to 1000 nM | 100 to 1000 nM | > 1000 nM
9 | Cc1cnc(-c2cnc3[nH]ccc3c2N[C@@H]2CCCN(C(=O)CC#N)C2)o1 [Example 36, (R)-3-(3-((5-(5-methyloxazol-2-yl)-1H-pyrrolo[2,3-b]pyridin-4-yl)amino)piperidin-1-yl)-3-oxopropanenitrile] | ≤ 10 nM | ≤ 10 nM | ≤ 10 nM | ≤ 10 nM | ≤ 100 nM | ≤ 100 nM | 100 to 1000 nM
10 | CSc1nccc(-c2cnc3[nH]ccc3c2N[C@@H]2CCCN(C(=O)CC#N)C2)n1 [Example 49, (R)-3-(3-((5-(2-(methylthio)pyrimidin-4-yl)-1H-pyrrolo[2,3-b]pyridin-4-yl)amino)piperidin-1-yl)-3-oxopropanenitrile] | ≤ 10 nM | 10 to 100 nM | ≤ 10 nM | 10 to 100 nM | ≤ 100 nM | ≤ 100 nM | > 1000 nM
11 | Cc1nc(-c2cnc3[nH]ccc3c2N[C@@H]2CCCN(C(=O)CC#N)C2)no1 [Example 19, (R)-3-(3-((5-(5-methyl-1,2,4-oxadiazol-3-yl)-1H-pyrrolo[2,3-b]pyridin-4-yl)amino)piperidin-1-yl)-3-oxopropanenitrile] | 10 to 100 nM | 100 to 1000 nM | 10 to 100 nM | 100 to 1000 nM | 100 to 1000 nM | > 1000 nM | > 1000 nM
12 | CS(=O)(=O)c1cnc(-c2cnc3[nH]ccc3c2N[C@@H]2CCCN(C(=O)CC#N)C2)s1 [Example 46, (R)-3-(3-((5-(5-(methylsulfonyl)thiazol-2-yl)-1H-pyrrolo[2,3-b]pyridin-4-yl)amino)piperidin-1-yl)-3-oxopropanenitrile] | ≤ 10 nM | ≤ 10 nM | ≤ 10 nM | ≤ 10 nM | ≤ 100 nM | ≤ 100 nM | 100 to 1000 nM
